In patent US20210113540A1, “TREATMENT AGENT AND PHARMACEUTICAL COMPOSITION FOR GLIOMA” (NATIONAL UNIVERSITY CORPORATION HOKKAIDO UNIVERSITY, priority 2018, published 2021):
Where two headings read alike, the source gives them in different places.

Tests used:
[1] = test system: Glioma-initiating cell E6R; assay: Cell growth test (MTT) on GICR strain E6R; type: cell-based; conditions: Homo sapiens, 72 h
Description: GICR strain: Cell growth test was performed using E6R (Stem Cells. 2016 August; 34(8):2016-25.).
(§1) Cell culture solutions were obtained by mixing a medium prepared by adding various compounds, bFGF (Peprotech, 100-18B) and EGF (Peprotech, 100-15) to DMEM/Ham's F-12 medium (SIGMA, D8062) and a medium prepared by adding FCS (Hyclone, SH30910.03) to DMEM medium (Nacalai tesque, 08458-45) to a concentration of 10% for use.
(§2) Each compound adjusted to a predetermined concentration was dispensed into a 96-well plate (Falcon, 353072) at 80 μL/well, and E6 cells and E6R cells were seeded on the 96-well plate at 1000 cells/80 μL/well. After 3 days, 10 μL of an MTT reagent (DOJINDO, 341-01823) was added, the cells were incubated at 37° C. for 3 hours, the culture solution was removed, and 100 μL of DMSO was added. The absorbance at 570 nm was measured using Bio-Rad iMark (Bio-Rad, 168-1130JA). The growth inhibition rate at each test compound concentration was calculated by the following formula using the absorbance as an index of the viable cell count.
(§3) The growth inhibition rate at each compound concentration was determined, and the 50% growth inhibition concentration GI50 (μmol/L)] was calculated using XLfit. Growth inhibition rate (%)=(Amount of luminescence from wells supplemented with test compound)/(Amount of luminescence from wells supplemented with DMSO)×100
(§4) GIC and GICR strain: Cell growth test was performed using E6, E6R, E16, and E16R (Stem Cells. 2016 August; 34(8): 2016-25.).

[2] = test system: Glioma-initiating cell E6; assay: Cell proliferation test (MTT) on GIC strain E6; type: cell-based; conditions: Homo sapiens, 72 h, MTT after 3 days
Description: as §4, §1, §2, §3

[3] = test system: Glioma-initiating cell E16; assay: Cell proliferation test (MTT) on GIC strain E16; type: cell-based; conditions: Homo sapiens, 72 h, MTT after 3 days
Description: as §4, §1, §2, §3

[4] = test system: Glioma-initiating cell E16R; assay: Cell proliferation test (MTT) on GICR strain E16R; type: cell-based; conditions: Homo sapiens, 72 h, MTT after 3 days
Description: as §4, §1, §2, §3

recombinant human DHODH = molecular target: T1, recombinant human DHODH (Homo sapiens, UniProt Q02127); assay: DHODH enzyme assay (DCIP quenching); type: biochemical; conditions: pH 8.0, DCIP absorbance 600 nm, 50 minutes; read-out: DHODH enzyme inhibition IC50
T1 construct: DHODH, 31-395aa, Human, His tag, E. coli, ATGP1615; His tag; purchased ATGen ATGP1615; host or cells: E. coli
Description: For DHODH enzyme assay, “Benjamin Bader, Wolfgang Knecht, Markus Fries, and Monika Löffler. Expression, Purification, and Characterization of Histidine-Tagged Rat and Human Flavoenzyme Dihydroorotate Dehydrogenase. Protein Expression and Purification, 1998, 13, 414-422” was referred to.
DHODH activity was evaluated using an enzyme assay system that couples with an assay in a blue-coloring dye 2,6-dichlorophenol indophenol (DCIP, MP BIOMEDICALS, MP150118) quenching assay. Purified recombinant human DHODH (DHODH, 31-395aa, Human, His tag, E. coli, ATGP1615) was purchased from ATGen. […] Enzyme activity was assessed by measuring the decrease in DCIP absorbance (600 nm) for 50 minutes using an Envision plate-reading spectrophotometer (PerkinElmer Co., Ltd.). […]
Enzyme reaction inhibition rate (%)=(Amount of luminescence from wells supplemented with test compound)/(Amount of luminescence from wells supplemented with DMSO)×100

[5] = MTT after 3 days, read-out: ER6 GI50
[6] = class of ER6 GI50, MTT after 3 days, read-out: Evaluation

T1 sequence (Q02127 31-395): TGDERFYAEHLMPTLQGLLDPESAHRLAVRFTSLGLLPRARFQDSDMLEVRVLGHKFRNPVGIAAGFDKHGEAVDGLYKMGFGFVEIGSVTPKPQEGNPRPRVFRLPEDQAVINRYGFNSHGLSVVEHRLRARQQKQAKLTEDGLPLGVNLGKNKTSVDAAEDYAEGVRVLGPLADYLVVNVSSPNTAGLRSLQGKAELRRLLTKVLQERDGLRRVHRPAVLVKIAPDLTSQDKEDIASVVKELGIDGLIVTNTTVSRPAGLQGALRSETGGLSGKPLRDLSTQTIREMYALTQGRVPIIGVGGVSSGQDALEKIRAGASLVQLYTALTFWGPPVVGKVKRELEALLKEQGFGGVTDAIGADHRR

Compound | GI50 [1, 5] [nmol/L] | GI50 [1, 6] [nmol/L] | other results
Cn1ccc2cc(Nc3ncc(C4CC4)cc3C(=O)O)cc(C3=CCCCC3)c21 [Compound 20] | 0.36 | < 1000 | –
O=C(O)c1cc(C2CC2)cnc1Nc1ccc2c(ccn2-c2cccc(F)c2)c1 [Compound 12, 5-cyclopropyl-2-((1-(3-fluorophenyl)-1H-indole-5-yl)amino)nicotinic acid] | 23.9 | < 1000 | –
Cn1ccc2cc(Nc3ncc(C4CC4)cc3C(=O)O)cc(-c3ccc(Cl)cc3)c21 [Compound 18, 2-((7-(4-chlorophenyl)-1-methyl-1H-indole-5-yl)amino)-5-cyclopropylnicotinic acid] | 0.62 | < 1000 | –
O=C(O)c1cc(C2CC2)cnc1Nc1cccc2c1ccn2-c1ccccc1 [Compound 3, 5-cyclopropyl-2-((1-phenyl-1H-indole-4-yl)amino)nicotinic acid] | 11 | < 1000 | –
Cn1ccc2cc(Nc3ncc(C4CC4)cc3C(=O)O)cc(-c3ccc(C#N)cc3)c21 [Compound 17, 2-((7-(4-cyanophenyl)-1-methyl-1H-indole-5-yl)amino)-5-cyclopropylnicotinic acid] | 2.96 | < 1000 | –
O=C(O)c1cc(C2CC2)cnc1Nc1ccc2c(-c3ccccc3)nccc2c1 [Compound 16, 5-cyclopropyl-2-((1-phenylisoquinoline-6-yl)amino)nicotinic acid] | 3.19 | < 1000 | –
O=C(O)c1cc(C2CC2)cnc1Nc1ccc2c(ccn2CC2CCCCC2)c1 [Compound 2, 2-((1-(cyclohexylmethyl)-1H-indole-5-yl)amino)-5-cyclopropylnicotinic acid] | 82.6 | < 1000 | –
Cn1ccc2cc(Nc3ncc(C4CC4)cc3C(=O)O)cc(-c3ccc(C(F)(F)F)cc3)c21 [Compound 5] | < 0.14 | < 1000 | –
O=C(O)c1cc(C2CC2)cnc1Nc1cc2ccn(Cc3ccccc3)c2cc1F [Compound 13, 2-((1-benzyl-6-fluoro-1H-indole-5-yl)amino)-5-cyclopropylnicotinic acid] | 11.4 | < 1000 | –
O=C(O)c1cc(C2CC2)cnc1Nc1ccc2c(-c3ccccc3)cccc2c1 [Compound 10, 5-cyclopropyl-2-((5-phenylnaphthalene-2-yl)amino)nicotinic acid] | 1.77 | < 1000 | –
Cn1ccc2cc(Nc3ncc(C4CC4)cc3C(=O)O)cc(-c3ccc(OC(F)(F)F)cc3)c21 [Compound 7, 5-cyclopropyl-2-((1-methyl-7-(4-(trifluoromethoxy)phenyl)-1H-indole-5-yl)amino)nicotinic acid] | < 0.14 | < 1000 | –
Cn1ccc2cc(Nc3ncc(C4CC4)cc3C(=O)O)cc(-c3ccccc3F)c21 [Compound 4, 5-cyclopropyl-2-((7-(2-fluorophenyl)-1-methyl-1H-indole-5-yl)amino)nicotinic acid] | 1.69 | < 1000 | –
O=C(O)c1cc(C2CC2)cnc1Nc1c(F)cc2c(ccn2Cc2ccccc2)c1F [Compound 14, 2-((1-benzyl-4,6-difluoro-1H-indole-5-yl)amino)-5-cyclopropylnicotinic acid] | 47.6 | < 1000 | –
Cn1ccc2cc(Nc3ncc(C4CC4)cc3C(=O)O)cc(-c3ccccc3)c21 [Compound 11, 5-cyclopropyl-2-((1-methyl-7-phenyl-1H-indole-5-yl)amino)nicotinic acid] | 4.77 | < 1000 | –
O=C(O)c1cc(C2CC2)ccc1Nc1cccc2c1ccc(=O)n2-c1ccccc1 [Compound 19, 5-cyclopropyl-2-((2-oxo-1-phenyl-1,2-dihydroquinoline-5-yl)amino)benzoic acid] | 5.8 | < 1000 | –
O=C(O)c1cc(C2CC2)ccc1Nc1ccc2c(cnn2Cc2ccccc2)c1 [Compound 1, 2-((1-benzyl-1h-indazole-5-yl)amino)-5-cyclopropylbenzoate] | 30.6 | < 1000 | –
Cn1ccc2cc(Nc3ncc(C4CC4)cc3C(=O)O)cc(C3=CCOCC3)c21 [Compound 15, 5-cyclopropyl-2-((7-(3,6-dihydro-2H-pyran-4-yl)-1-methyl-1H-indole-5-yl)amino)nicotinic acid] | 25.9 | < 1000 | –
O=C(O)c1cc(C2CC2)cnc1Nc1cccc2c(-c3ccccc3)cccc12 [Compound 9, 5-cyclopropyl-2-((5-phenylnaphthalene-1-yl)amino)nicotinic acid] | 4.35 | < 1000 | –
O=C(O)c1cc(C2CC2)cnc1Nc1ccc2c(ccn2Cc2cccc(F)c2)c1 [Compound 21, 5-cyclopropyl-2-((1-(3-fluorobenzyl)-1H-indole-5-yl)amino)nicotinic acid] | – | – | GI50 ([1]; MTT after 3 days, read-out: GI50 (nmol/L) of Glioma-initiating cell E6R): 655 nmol/L; GI50 ([1]; MTT after 3 days, read-out: GI50 class of Glioma-initiating cell E6R): < 1000 nmol/L; GI50 ([2]; read-out: GI50 (nmol/L) of Glioma-initiating cell E6): 100 nmol/L; GI50 ([2]; read-out: GI50 class of Glioma-initiating cell E6): < 1000 nmol/L; GI50 ([3]; read-out: GI50 (nmol/L) of Glioma-initiating cell E16): 11800 nmol/L; GI50 ([3]; read-out: GI50 class of Glioma-initiating cell E16): ≥ 10000 nmol/L; GI50 ([4]; read-out: GI50 (nmol/L) of Glioma-initiating cell E16R): 1960 nmol/L; GI50 ([4]; read-out: GI50 class of Glioma-initiating cell E16R): 1000 to 10000 nmol/L; IC50 (recombinant human DHODH): 28.6 nM
Cn1ccc2cc(Nc3ncc(C4CC4)cc3C(=O)O)cc(-c3cccc(Cl)c3)c21 [Compound 6, 2-((7-(3-chlorophenyl)-1-methyl-1H-indole-5-yl)amino)-5-cyclopropylnicotinic acid] | 2.23 | < 1000 | –
